Measured values as given in patent US12448392B2, “Spiropiperidine derivatives” (89BIO LTD, priority 2016, dated 2025).

What follows are molecules tested against T1, recombinant human baculovirus-expressed GST-tagged FASN (Homo sapiens, UniProt P49327) (assay: biochemical). Settings: not given.
T1 construct: GST
T1 sequence (P49327 whole entry): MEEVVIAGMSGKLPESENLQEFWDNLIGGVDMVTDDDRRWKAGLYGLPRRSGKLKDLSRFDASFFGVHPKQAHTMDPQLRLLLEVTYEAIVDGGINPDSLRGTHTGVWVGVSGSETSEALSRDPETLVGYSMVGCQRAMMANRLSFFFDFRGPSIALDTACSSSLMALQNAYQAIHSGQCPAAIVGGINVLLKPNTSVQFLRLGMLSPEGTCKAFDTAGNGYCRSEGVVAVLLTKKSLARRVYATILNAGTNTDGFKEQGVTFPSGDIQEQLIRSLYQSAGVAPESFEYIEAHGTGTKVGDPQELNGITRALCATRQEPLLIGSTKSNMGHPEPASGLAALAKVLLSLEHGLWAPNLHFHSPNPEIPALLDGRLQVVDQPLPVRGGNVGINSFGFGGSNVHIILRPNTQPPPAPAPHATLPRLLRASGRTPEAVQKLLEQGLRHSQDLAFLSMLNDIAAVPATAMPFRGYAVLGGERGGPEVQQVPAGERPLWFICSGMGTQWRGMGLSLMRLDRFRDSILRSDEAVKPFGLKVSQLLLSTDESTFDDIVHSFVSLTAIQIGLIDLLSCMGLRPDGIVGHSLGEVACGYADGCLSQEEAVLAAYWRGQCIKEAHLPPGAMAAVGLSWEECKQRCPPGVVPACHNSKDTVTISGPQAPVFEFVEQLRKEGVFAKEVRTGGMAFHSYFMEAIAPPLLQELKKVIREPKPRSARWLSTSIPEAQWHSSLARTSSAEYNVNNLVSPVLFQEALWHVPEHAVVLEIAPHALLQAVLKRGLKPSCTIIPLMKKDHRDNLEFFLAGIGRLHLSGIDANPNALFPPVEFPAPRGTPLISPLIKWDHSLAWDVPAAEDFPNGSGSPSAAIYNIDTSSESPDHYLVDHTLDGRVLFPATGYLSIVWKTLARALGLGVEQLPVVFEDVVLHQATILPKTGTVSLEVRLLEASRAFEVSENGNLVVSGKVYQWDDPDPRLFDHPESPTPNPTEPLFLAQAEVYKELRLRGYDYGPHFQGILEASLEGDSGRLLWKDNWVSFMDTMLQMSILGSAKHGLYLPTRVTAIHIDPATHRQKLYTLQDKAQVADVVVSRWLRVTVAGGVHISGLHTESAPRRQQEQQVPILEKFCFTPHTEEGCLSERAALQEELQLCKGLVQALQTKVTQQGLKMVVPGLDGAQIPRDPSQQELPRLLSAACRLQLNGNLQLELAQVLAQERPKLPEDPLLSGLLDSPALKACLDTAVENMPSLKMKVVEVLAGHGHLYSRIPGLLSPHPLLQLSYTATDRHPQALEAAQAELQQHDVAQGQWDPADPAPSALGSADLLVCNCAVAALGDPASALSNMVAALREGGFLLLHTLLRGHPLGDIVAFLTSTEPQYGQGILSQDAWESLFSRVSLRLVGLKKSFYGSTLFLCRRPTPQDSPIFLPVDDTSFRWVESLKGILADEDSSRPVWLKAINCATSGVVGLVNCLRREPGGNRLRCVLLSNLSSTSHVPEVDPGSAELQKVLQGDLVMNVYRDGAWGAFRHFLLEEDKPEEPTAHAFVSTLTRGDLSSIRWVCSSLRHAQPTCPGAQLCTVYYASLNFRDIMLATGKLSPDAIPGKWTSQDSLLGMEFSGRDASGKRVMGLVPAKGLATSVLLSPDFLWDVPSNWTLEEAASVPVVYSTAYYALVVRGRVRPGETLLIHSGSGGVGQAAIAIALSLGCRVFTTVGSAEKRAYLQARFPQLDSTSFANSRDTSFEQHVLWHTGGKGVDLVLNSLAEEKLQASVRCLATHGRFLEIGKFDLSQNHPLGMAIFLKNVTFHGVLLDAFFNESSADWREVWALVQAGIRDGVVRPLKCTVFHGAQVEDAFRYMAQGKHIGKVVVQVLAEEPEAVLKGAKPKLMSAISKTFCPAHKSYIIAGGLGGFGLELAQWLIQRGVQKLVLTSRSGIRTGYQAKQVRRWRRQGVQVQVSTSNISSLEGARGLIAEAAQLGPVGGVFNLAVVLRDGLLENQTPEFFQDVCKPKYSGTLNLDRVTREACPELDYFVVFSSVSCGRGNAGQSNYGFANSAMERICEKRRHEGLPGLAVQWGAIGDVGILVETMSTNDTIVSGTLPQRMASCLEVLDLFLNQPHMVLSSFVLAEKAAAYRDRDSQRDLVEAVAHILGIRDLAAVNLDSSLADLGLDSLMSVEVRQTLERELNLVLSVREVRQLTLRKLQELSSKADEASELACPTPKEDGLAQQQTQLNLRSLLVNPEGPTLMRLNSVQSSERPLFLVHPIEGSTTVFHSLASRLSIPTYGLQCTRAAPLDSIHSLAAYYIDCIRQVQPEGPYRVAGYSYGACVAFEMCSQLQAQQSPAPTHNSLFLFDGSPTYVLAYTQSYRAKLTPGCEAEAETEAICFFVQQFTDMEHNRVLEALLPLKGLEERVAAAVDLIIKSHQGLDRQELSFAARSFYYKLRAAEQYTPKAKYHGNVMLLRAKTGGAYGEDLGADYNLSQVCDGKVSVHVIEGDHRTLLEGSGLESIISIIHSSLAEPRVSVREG
CCNC(=O)N1CCC2(CC1)OCc1cc(-c3ccc4cccnc4c3C)ccc1O2 [Example 117, N-Ethyl-6-(8-methyl-7-quinolyl)spiro[4H-1,3-benzodioxine-2,4′-piperidine]-1′-carboxamide] showed an IC50 of 1 to 99 nM.
With Cc1c(-c2ccc3c(c2)COC2(CCN(C(N)=O)CC2)O3)ccc2cccnc12 [Example 118, 6-(8-Methyl-7-quinolyl)spiro[4H-1,3-benzodioxine-2,4′-piperidine]-1′-carboxamide] the IC50 was 1 to 99 nM.
Cc1c(-c2ccc3c(c2)COC2(CCN(C(=O)NC(C)C)CC2)O3)ccc2cccnc12 [Example 119, N-Isopropyl-6-(8-methyl-7-quinolyl)spiro[4H-1,3-benzodioxine-2,4′-piperidine]-1′-carboxamide] showed an IC50 of 1 to 99 nM.

Same assay, conditions: 5 nM FASN, 150 μM NADPH, 10 μM acetyl-CoA, 25 μM malonyl-CoA, 90 minutes incubation; read-out: IC50 data for Compounds of Formula I, Activity
Cc1c(-c2ccc3c(c2)CCC2(CCN(C(=O)NO)CC2)O3)ccc2cccnc12 [Example 105, 6-(8-methyl-7-quinolyl)spiro[chromane-2,4′-piperidine]-1′-carbohydroxamic acid] gave an IC50 of 100 to 999 nM.
Molecule Cc1c(-c2ccc3c(c2)CCC2(CCN(C(N)=O)CC2)O3)ccc2cccnc12 [Example 106, 6-(8-Methyl-7-quinolyl)spiro[chromane-2,4′-piperidine]-1′-carboxamide] has an IC50 of 1 to 99 nM.
Work on CCONC(=O)N1CCC2(CCc3cc(-c4ccc5nccn5c4C)ccc3O2)CC1 [Example 107, N-Ethoxy-6-(5-methylimidazo[1,2-a]pyridin-6-yl)spiro[chromane-2,4′-piperidine]-1′-carboxamide] yielded an IC50 of 1 to 99 nM.
In the case of Cc1c(-c2ccc3c(c2)CCC2(CCN(C(=O)NOC(C)C)CC2)O3)ccc2nccn12 [Example 108, N-Isopropoxy-6-(5-methylimidazo[1,2-a]pyridin-6-yl)spiro[chromane-2,4′-piperidine]-1′-carboxamide], the IC50 is reported as 1 to 99 nM.
Work on Cc1c(-c2ccc3c(c2)CCC2(CCN(C(N)=O)CC2)O3)ccc2nccn12 [Example 109, 6-(5-Methylimidazo[1,2-a]pyridin-6-yl)spiro[chromane-2,4′-piperidine]-1′-carboxamide] yielded an IC50 of 100 to 999 nM.
Molecule CCNC(=O)N1CCC2(CCc3cc(-c4ccc5nccn5c4C)ccc3O2)CC1 [Example 110, N-Ethyl-6-(5-methylimidazo[1,2-a]pyridin-6-yl)spiro[chromane-2,4′-piperidine]-1′-carboxamide] has an IC50 of 1 to 99 nM.
Cc1c(-c2ccc3c(c2)CCC2(CCN(C(=O)NC(C)C)CC2)O3)ccc2nccn12 [Example 111, N-Isopropyl-6-(5-methylimidazo[1,2-a]pyridin-6-yl)spiro[chromane-2,4′-piperidine]-1′-carboxamide] showed an IC50 of 100 to 999 nM.
CCNC(=O)N1CCC2(CCc3cc(-c4ccc5ccnn5c4C)ccc3O2)CC1 [Example 112, N-Ethyl-6-(7-methylpyrazolo[1,5-a]pyridin-6-yl)spiro[chromane-2,4′-piperidine]-1′-carboxamide] was tested, and the IC50 was 1 to 99 nM.
For Cc1c(-c2ccc3c(c2)CCC2(CCN(C(=O)NC(C)C)CC2)O3)ccc2ccnn12 [Example 113, N-Isopropyl-6-(7-methylpyrazolo[1,5-a]pyridin-6-yl)spiro[chromane-2,4′-piperidine]-1′-carboxamide], the IC50 was 100 to 999 nM.
For Cc1c(-c2ccc3c(c2)CCC2(CCN(C(N)=O)CC2)O3)ccc2ccnn12 [Example 114, 6-(7-Methylpyrazolo[1,5-a]pyridin-6-yl)spiro[chromane-2,4′-piperidine]-1′-carboxamide], the IC50 was 1 to 99 nM.
For CCONC(=O)N1CCC2(CCc3cc(-c4ccc5ccnn5c4C)ccc3O2)CC1 [Example 115, N-Ethoxy-6-(7-methylpyrazolo[1,5-a]pyridin-6-yl)spiro[chromane-2,4′-piperidine]-1′-carboxamide], the IC50 was 1 to 99 nM.
For Cc1c(-c2ccc3c(c2)CCC2(CCN(C(=O)NOC(C)C)CC2)O3)ccc2ccnn12 [Example 116, N-Isopropoxy-6-(7-methylpyrazolo[1,5-a]pyridin-6-yl)spiro[chromane-2,4′-piperidine]-1′-carboxamide], the IC50 was 1 to 99 nM.
